From US20040102423A1, “Spironolactone and angiotensin II antagonist combination therapy for treatment of congestive heart failure” (G.D. Searle & Co., priority 1995, published 2004)

Columns and labels:
[1] = molecular target: angiotensin II AT1 receptor; assay: Assay A: Angiotensin II binding activity, rat uterine membrane preparation, 125I-AII displacement
Experimental: Assay A: Antiotensin II Binding Activity
Compounds of the invention were tested for ability to bind to the smooth muscle angiotensin II receptor using a rat uterine membrane preparation. […] Rat uterine membranes were prepared from fresh tissue. All procedures were carried out at 4° C. Uteri were stripped of fat and homogenized in phosphate-buffered saline at pH 7.4 containing 5 mM EDTA. The homogenate was centrifuged at 1500×g for 20 min., and the supernatant was recentrifuged at 100,000×g for 60 min. The pellet was resuspended in buffer consisting of 2 mM EDTA and 50 mM Tris-HCl (pH 7.5) to a final protein concentration of 4 mg/ml. […] The reaction was initiated by the addition of membrane protein and the mixture was incubated at 25° C. for 60 min. The incubation was terminated with ice-cold 50 mM Tris-HCl (pH 7.5) and the mixture was filtered to separate membrane-bound labelled peptide from the free ligand. The incubation tube and filter were washed with ice-cold buffer. Filters were assayed for radioactivity in a Micromedic gamma counter. Nonspecific binding was defined as binding in the presence of 10 μM of unlabelled AII. Specific binding was calculated as total binding minus nonspecific binding. […] Binding data were analyzed by a nonlinear least-squares curve fitting program.

rabbit aortic rings = assay: Assay B: In vitro vascular smooth muscle response for AII (antagonist activity, pA2); format: cell-based; conditions: for Kb: Oryctolagus cuniculus, two values in a cell = two determinations
Experimental: Assay B: In Vitro Vascular Smooth Muscle-Response for AII
The compounds of the invention were tested for antagonist activity in rabbit aortic rings. Male New Zealand white rabbits (2-2.5 kg) were sacrificed using an overdose of pentobarbital and exsanguinated via the carotid arteries. The thoracic aorta was removed, cleaned of adherent fat and connective tissue and then cut into 3-mm ring segments. The endothelium was removed from the rings by gently sliding a rolled-up piece of filter paper into the vessel lumen. The rings were then mounted in a water-jacketed tissue bath, maintained at 37° C., between moveable and fixed ends of a stainless steel wire with the moveable end attached to an FT03 Grass transducer coupled to a Model 7D Grass Polygraph for recording isometric force responses. The bath was filled with 20 ml of oxygenated (95% oxygen/5% carbon dioxide) Krebs solution of the following composition (mM): 130 NaCl, 15 NaHCO3, […], 1.2 NaH2PO4, 1.2 MgSO4, 2.5 CaCl2, and 11.4 glucose. The preparations were equilibrated for one hour before approximately one gram of passive tension was placed on the rings. Angiotensin II concentration-response curves were then recorded (3×10^−10 to 1×10^−5 M). Each concentration of AII was allowed to elicit its maximal contraction, and then AII was washed out repeatedly for 30 minutes before rechallenging with a higher concentration of AII. Aorta rings were exposed to the test antagonist at 10^−5 M for 5 minutes before challenging with AII. Adjacent segments of the same aorta ring were used for all concentration-response curves in the presence or absence of the test antagonist. The effectiveness of the test compound was expressed in terms of pA2 values and were calculated according to H. O. Schild [Br. J. Pharmacol. Chemother., 2, 189-206 (1947)]. The pA2 value is […] which increases the EC50 value for AII by a factor of two. Each test antagonist was evaluated in aorta rings from two rabbits.

Row | SMILES | IC50 [1] [nM] | Kb (rabbit aortic rings) [nM] | Assay B pA2 (result given as symbol) (rabbit aortic rings)
1 | CCCCc1nc(CCCC)n(Cc2ccc(-c3ccccc3C(=O)OC)cc2)n1 [Compound 12] | 6 | 2.19 | –
2 | CCCCc1nc(CCCC)n(Cc2ccc(-c3ccccc3C(=O)O)cc2)n1 [Compound 13] | 17 | 2 | –
3 | CCCCc1nc(CCCC)n(Cc2ccc(-c3ccccc3C(=O)NN)cc2)n1 [Compound 15] | 16 | 4.9 | –
4 | CCCCc1nc(CCCC)n(Cc2ccc(-c3ccccc3C(=O)NNS(=O)(=O)C(F)(F)F)cc2)n1 [Compound 16] | 6.4 | 1.12 | –
5 | CCCCc1nc(Cl)nn1Cc1ccc(-c2ccccc2C(=O)O)cc1 [Compound 17] | 4 | 2.29 | –
6 | CCCCc1nc(Cl)n(Cc2ccc(-c3ccccc3C(=O)O)cc2)n1 [Compound 19] | 12000 | 6610 | –
7 | CCCCc1nc(C(F)(F)CCC)n(Cc2ccc(-c3ccccc3-c3nnn[nH]3)cc2)n1 [Compound 22] | 460 | 251 | –
8 | CCCCCc1nc(CCCCC)n(Cc2ccc(-c3ccccc3-c3nnn[nH]3)cc2)n1 [Compound 24] | 10 | 27.5 | –
9 | CCCCc1nc(C(OC)OC)nn1Cc1ccc(-c2ccccc2-c2nnn[nH]2)cc1 [Compound 35] | 41 | 56.2 | –
10 | CCCCc1nc(CCc2ccccc2)n(Cc2ccc(-c3ccccc3-c3nnn[nH]3)cc2)n1 [Compound 36] | 1400 | 1200 | –
11 | CCCCc1nc(CCc2ccccc2)nn1Cc1ccc(-c2ccccc2-c2nnn[nH]2)cc1 [Compound 37] | 340 | 126 | –
12 | CCCCCCCCc1nc(CCCC)nn1Cc1ccc(-c2ccccc2-c2nnn[nH]2)cc1 [Compound 39] | 10 | 13.2 | –
13 | CCCCc1nc(CNC(=O)OC(C)(C)C)n(Cc2ccc(-c3ccccc3-c3nnn[nH]3)cc2)n1 [Compound 45] | 4.4 | 3.89 | –
14 | CCCCc1nc(CNC(=O)OC(C)(C)C)nn1Cc1ccc(-c2ccccc2-c2nnn[nH]2)cc1 [Compound 46] | 110 | 158 | –
15 | CCCCc1nc(CC(OCC)OCC)nn1Cc1ccc(-c2ccccc2-c2nnn[nH]2)cc1 [Compound 49] | 120 | 87.1 | –
16 | CCCCc1nc(CNC(=O)CCC(NC(C)=O)C(=O)OC(C)(C)C)nn1Cc1ccc(-c2ccccc2-c2nnn[nH]2)cc1 (stereo not drawn) [Compound 52] | 100 | 7.24 | –
17 | CCCCc1nc(C(F)F)nn1Cc1ccc(-c2ccccc2-c2nnn[nH]2)cc1 [Compound 58] | 140 | 355 | –

Row | SMILES | IC50 [1] [nM] | Kb (rabbit aortic rings) [nM] | Assay B pA2 (result given as symbol) (rabbit aortic rings)
18 | CCCCc1nc(C(F)(F)Cc2ccccc2)nn1Cc1ccc(-c2ccccc2-c2nnn[nH]2)cc1 [Compound 62] | 26 | 2.04 | –
19 | CCCCc1nc(C(=O)O)nn1Cc1ccc(-c2ccccc2-c2nnn[nH]2)cc1 [Compound 63] | 61 | 17 | –
20 | CCCCc1ncnn1Cc1ccc(-c2ccccc2-c2nnn[nH]2)cc1 [Compound 64] | 54 | 100 | –
21 | CCCCc1ncn(Cc2ccc(-c3ccccc3-c3nnn[nH]3)cc2)n1 [Compound 65] | 23 | 14.1 | –
22 | CCCCc1nc(CCCNC(=O)OC(C)(C)C)n(Cc2ccc(-c3ccccc3-c3nnn[nH]3)cc2)n1 [Compound 78] | 101 | 100 | –
23 | CCCCc1nc(CCCNC(=O)OC(C)(C)C)nn1Cc1ccc(-c2ccccc2-c2nnn[nH]2)cc1 [Compound 79] | 4.9 | 0.631 | –
24 | CCCCc1nc(C(F)(F)C(F)(F)F)nn1Cc1ccc(-c2ccccc2-c2nnn[nH]2)cc1 [Compound 80] | 25 | 7.94 | –
25 | CCCCc1nc(CC)nn1Cc1ccc(-c2ccccc2C(=O)O)cc1 [Compound 86] | 9 | 15.8 | –
26 | CCCCc1nc(CC)n(Cc2ccc(-c3ccccc3C(=O)O)cc2)n1 [Compound 87] | 91 | 15.8 | –
27 | CCCCc1nc(C)n(Cc2ccc(-c3ccccc3C(=O)O)cc2)n1 [Compound 88] | 50 | 20 | –
28 | CCCCc1nn(CCCC)c(=O)n1Cc1ccc(-c2ccccc2C(=O)O)cc1 [Compound 89] | 18 | 12.6 | –
29 | CCCCc1nn(CCCC)c(=O)n1Cc1ccc(-c2ccccc2-c2nnn[nH]2)cc1 [Compound 90] | 5.6 | 1 | –
30 | CCCCc1nn(CC(=O)C23CC4CC(CC(C4)C2)C3)c(=O)n1Cc1ccc(-c2ccccc2-c2nn[nH]n2)cc1 [Compound 91] | 30 | 2.51 | –
31 | CCCCc1nn(CCCc2ccccc2)c(=O)n1Cc1ccc(-c2ccccc2-c2nn[nH]n2)cc1 [Compound 92] | 35 | 12.6 | –
32 | CCCCc1nn(CC(=O)OC(C)(C)C)c(=O)n1Cc1ccc(-c2ccccc2-c2nn[nH]n2)cc1 [Compound 95] | 66 | 6.31 | –
33 | CCCCCCn1nc(CCCC)n(Cc2ccc(-c3ccccc3-c3nn[nH]n3)cc2)c1=O [Compound 96] | 21 | 10 | –
34 | CCCCc1nn(CC(=O)OCC)c(=O)n1Cc1ccc(-c2ccccc2-c2nn[nH]n2)cc1 [Compound 97] | 280 | 20 | –

Second part, led by results:

Row | IC50 [1] [nM] | SMILES | Kb (rabbit aortic rings) [nM] | Assay B pA2 (result given as symbol) (rabbit aortic rings)
35 | 7.2 | CCCCc1nc(CCCC)n(Cc2ccc(-c3ccccc3-c3nnn[nH]3)cc2)n1 [Compound 14] | 1.45 | –
36 | 970 | CCCCc1nc(Cl)nn1Cc1ccc(-c2ccccc2-c2nnn[nH]2)cc1 [Compound 18] | 724 | –
37 | 480 | CCCCc1nc(CCC)nn1Cc1ccc(-c2ccccc2-c2nnn[nH]2)cc1 [Compound 25] | 158 | –
38 | 21 | CCCCc1nc(CN)n(Cc2ccc(-c3ccccc3-c3nnn[nH]3)cc2)n1 [Compound 47] | 14.1 | –
39 | 54 | CCCCc1nc(CC)nn1Cc1ccc(-c2ccccc2-c2nnn[nH]2)cc1 [Compound 50] | 19.5 | –
40 | 8.7 | CCCCc1nc(CC)n(Cc2ccc(-c3ccccc3-c3nnn[nH]3)cc2)n1 [Compound 51] | 4.07 | –
41 | 65 | CCCCc1nc(CCC2CCCCC2)n(Cc2ccc(-c3ccccc3-c3nnn[nH]3)cc2)n1 [Compound 53] | 27.5 | –
42 | 3100 | CCCCc1nc(CCC2CCCCC2)nn1Cc1ccc(-c2ccccc2-c2nnn[nH]2)cc1 [Compound 54] | 955 | –
43 | 2300 | CCCCc1nc(CCCO)n(Cc2ccc(-c3ccccc3-c3nnn[nH]3)cc2)n1 [Compound 57] | 1000 | –
44 | 3100 | CCCCc1nc(C23CC4CC(CC(C4)C2)C3)nn1Cc1ccc(-c2ccccc2-c2nnn[nH]2)cc1 [Compound 67] | 1320 | –
45 | 12000 | CCCCc1nc(CF)n(Cc2ccc(-c3ccccc3-c3nnn[nH]3)cc2)n1 [Compound 71] | – | * (Antagonist Activity not observed up to 10 μM of test compound.)
46 | 83 | CCCCc1nc(CC23CC4CC(CC(C4)C2)C3)n(Cc2ccc(-c3ccccc3-c3nnn[nH]3)cc2)n1 [Compound 72] | 776 | –
47 | 790 | CCCCc1nc(CC23CC4CC(CC(C4)C2)C3)nn1Cc1ccc(-c2ccccc2-c2nnn[nH]2)cc1 [Compound 73] | 22.4 | –
48 | 6.5 | CCCCc1nc(CCC(=O)O)nn1Cc1ccc(-c2ccccc2-c2nnn[nH]2)cc1 [Compound 74] | 2.75 | –
49 | 5400 | CCCCc1nc(C2CCCCC2)n(Cc2ccc(-c3ccccc3-c3nnn[nH]3)cc2)n1 [Compound 76] | 3020 | –
50 | 15000 | CCCCc1nc(C2CCCCC2)nn1Cc1ccc(-c2ccccc2-c2nnn[nH]2)cc1 [Compound 77] | 1700 | –
51 | 7.9 | CCCCc1nc(CCCN)n(Cc2ccc(-c3ccccc3-c3nnn[nH]3)cc2)n1 [Compound 82] | 3.16 | –
52 | 3.6 | CCCCc1nc(CCCN)nn1Cc1ccc(-c2ccccc2-c2nnn[nH]2)cc1 [Compound 83] | 5.01 | –
53 | 16 | CCCCc1nc(CC2CCCCC2)n(Cc2ccc(-c3ccccc3-c3nnn[nH]3)cc2)n1 [Compound 84] | 79.4 | –
54 | 8.7 | CCCCc1nc(CC2CCCCC2)nn1Cc1ccc(-c2ccccc2-c2nnn[nH]2)cc1 [Compound 85] | 1.26 | –
